Columns and labels:
Thymidylate synthase = Thymidylate synthase (Mus musculus, UniProt P07607); experiment: Inhibition of partially purified thymidylate synthase (TS)
L1210 [1] = experiment: Growth inhibition of L1210 cells in culture.; format: functional, cell-based; conditions: Mus musculus
L1210 [2] = experiment: (§1) Percent control for L1210 cell growth in the presence of thymidine (in vitro); format: functional, Mus musculus; design: concentration or dose not given beside the values
L1210 [3] = experiment: as §1; format: functional, Mus musculus

Chain of Thymidylate synthase (P07607 whole entry): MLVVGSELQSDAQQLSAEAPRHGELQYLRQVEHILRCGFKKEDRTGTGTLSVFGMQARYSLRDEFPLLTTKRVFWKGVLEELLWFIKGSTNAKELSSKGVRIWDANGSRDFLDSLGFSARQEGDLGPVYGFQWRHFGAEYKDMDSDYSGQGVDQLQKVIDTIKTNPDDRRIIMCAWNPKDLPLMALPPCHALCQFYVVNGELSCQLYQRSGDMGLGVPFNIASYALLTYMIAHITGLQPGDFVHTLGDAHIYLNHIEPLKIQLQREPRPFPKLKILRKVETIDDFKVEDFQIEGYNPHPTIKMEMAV

Row | IC50 (Thymidylate synthase) [nM] | IC50 (L1210 [1]) [nM] | Compound | Control (L1210 [2]) [%] | Control (L1210 [3]) [%]
1 | 145 | 1500 | CCN(Cc1ccc2nc(C)[nH]c(=O)c2c1)c1ccc(C(=O)N[C@@H](CCC(=O)O)C(=O)O)c([N+](=O)[O-])c1 |  | 
2 | 310 | 1300 | CCN(Cc1ccc2nc(C)[nH]c(=O)c2c1)c1ccc(C(=O)N[C@@H](CCC(=O)O)C(=O)O)c(N)c1 |  | 
3 | 480 | 1200 | C#CCN(Cc1ccc2nc(C)[nH]c(=O)c2c1)c1ccc(C(=O)N[C@@H](CCC(=O)O)C(=O)O)c(C(F)(F)F)c1 |  | 
4 | 290 | 360 | C#CCN(Cc1ccc2nc(C)[nH]c(=O)c2c1)c1ccc(C(=O)N[C@@H](CCC(=O)O)C(=O)O)c(N)c1 |  | 
5 | 11700 | 2700 | Cc1nc2ccc(CN(CCN)c3ccc(C(=O)N[C@@H](CCC(=O)O)C(=O)O)c(F)c3)cc2c(=O)[nH]1 |  | 
6 | 9340 | 120 | Cc1nc2ccc(CNc3ccc(C(=O)N[C@@H](CCC(=O)O)C(=O)O)cc3F)cc2c(=O)[nH]1 | 86 | 
7 | 43 | 130 | Cc1nc2ccc(CN(CCF)c3ccc(C(=O)N[C@@H](CCC(=O)O)C(=O)O)c(F)c3)cc2c(=O)[nH]1 | 98 | 
8 | 3780 | 64 | Cc1nc2ccc(CNc3ccc(C(=O)N[C@@H](CCC(=O)O)C(=O)O)c(F)c3)cc2c(=O)[nH]1 | 94 | 
9 | 3580 | 85 | Cc1nc2ccc(CN(CCO)c3ccc(C(=O)N[C@@H](CCC(=O)O)C(=O)O)cc3F)cc2c(=O)[nH]1 | 95 | 
10 | 980 | 170 | Cc1nc2ccc(CN(CCCO)c3ccc(C(=O)N[C@@H](CCC(=O)O)C(=O)O)cc3F)cc2c(=O)[nH]1 |  | 
11 |  |  | Cc1nc2ccc(CN(CCCO)c3ccc(C(=O)N[C@@H](CCC(=O)O)C(=O)O)cc3)cc2c(=O)[nH]1 | 95 | 
12 | 590 | 30 | Cc1nc2ccc(CN(CCCO)c3ccc(C(=O)N[C@@H](CCC(=O)O)C(=O)O)c(F)c3)cc2c(=O)[nH]1 | 95 | 
13 | 45 | 65 | CCN(Cc1ccc2nc(C)[nH]c(=O)c2c1)c1ccc(C(=O)N[C@@H](CCC(=O)O)C(=O)O)c(F)c1 | 96 | 
14 | 320 | 1200 | CCN(Cc1ccc2nc(C)[nH]c(=O)c2c1)c1ccc(C(=O)N[C@@H](CCC(=O)O)C(=O)O)c(C)c1 | 94 | 
15 | 1750 | 69 | Cc1nc2ccc(CN(CCF)c3ccc(C(=O)N[C@@H](CCC(=O)O)C(=O)O)cc3F)cc2c(=O)[nH]1 |  | 
16 | 5160 | 140 | C=CCN(Cc1ccc2nc(C)[nH]c(=O)c2c1)c1ccc(C(=O)N[C@@H](CCC(=O)O)C(=O)O)cc1F | 97 | 
17 | 680 | 86 | CCN(Cc1ccc2nc(C)[nH]c(=O)c2c1)c1ccc(C(=O)N[C@@H](CCC(=O)O)C(=O)O)cc1F | 96 | 
18 | 78 | 70 | Cc1nc2ccc(CN(CCO)c3ccc(C(=O)N[C@@H](CCC(=O)O)C(=O)O)c(F)c3)cc2c(=O)[nH]1 |  | 
19 | 190 | 18000 | CCN(Cc1ccc2nc(C)[nH]c(=O)c2c1)c1ccc(C(=O)N[C@@H](CCC(=O)O)C(=O)O)c(OC)c1 |  | 

Row | IC50 (Thymidylate synthase) [nM] | IC50 (L1210 [1]) [nM] | Compound | Control (L1210 [2]) [%] | Control (L1210 [3]) [%]
20 | 860 | 760 | Cc1nc2ccc(CN(C)c3ccc(C(=O)N[C@@H](CCC(=O)O)C(=O)O)c(N)c3)cc2c(=O)[nH]1 |  | 
21 | 120 | 870 | CCN(Cc1ccc2nc(C)[nH]c(=O)c2c1)c1ccc(C(=O)N[C@@H](CCC(=O)O)C(=O)O)c(Cl)c1 |  | 
22 |  |  | C#CCN(Cc1ccc2nc(C)[nH]c(=O)c2c1)c1ccc(C(=O)N[C@@H](CCC(=O)O)C(=O)O)c(F)c1 | 97 | 
23 | 1430 | 52 | C#CCN(Cc1ccc2nc(C)[nH]c(=O)c2c1)c1ccc(C(=O)N[C@@H](CCC(=O)O)C(=O)O)cc1F | 102 | 
24 | 120 | 19 | Cc1nc2ccc(CN(C)c3ccc(C(=O)N[C@@H](CCC(=O)O)C(=O)O)c(F)c3)cc2c(=O)[nH]1 | 98 | 
25 | 1340 | 800 | Cc1nc2ccc(CN(CC(N)=O)c3ccc(C(=O)N[C@@H](CCC(=O)O)C(=O)O)c(F)c3)cc2c(=O)[nH]1 |  | 
26 | 76 | 100 | C=CCN(Cc1ccc2nc(C)[nH]c(=O)c2c1)c1ccc(C(=O)N[C@@H](CCC(=O)O)C(=O)O)c(F)c1 | 97 | 
27 | 130 | 400 | C#CCN(Cc1ccc2nc(C)[nH]c(=O)c2c1)c1ccc(C(=O)N[C@@H](CCC(=O)O)C(=O)O)c([N+](=O)[O-])c1 |  | 
28 | 940 | 800 | Cc1nc2ccc(CN(C)c3ccc(C(=O)N[C@@H](CCC(=O)O)C(=O)O)c(C)c3)cc2c(=O)[nH]1 |  | 
29 | 90 | 500 | C#CCN(Cc1ccc2nc(C)[nH]c(=O)c2c1)c1ccc(C(=O)N[C@@H](CCC(=O)O)C(=O)O)c(O)c1 | 77 | 
30 | 170 | 34 | Cc1nc2ccc(CN(CC#N)c3ccc(C(=O)N[C@@H](CCC(=O)O)C(=O)O)c(F)c3)cc2c(=O)[nH]1 | 90 | 
31 | 500 | 360 | C#CCN(Cc1ccc2nc(C)[nH]c(=O)c2c1)c1ccc(C(=O)N[C@@H](CCC(=O)O)C(=O)O)c(C)c1 | 97 | 
32 | 67 | 3000 | C#CCN(Cc1ccc2nc(C)[nH]c(=O)c2c1)c1ccc(C(=O)N[C@@H](CCC(=O)O)C(=O)O)c(OC)c1 | 95 | 
33 | 74 | 250 | C#CCN(Cc1ccc2nc(C)[nH]c(=O)c2c1)c1ccc(C(=O)N[C@@H](CCC(=O)O)C(=O)O)c(Cl)c1 |  | 
34 |  |  | C=CCN(Cc1ccc2nc(C)[nH]c(=O)c2c1)c1ccc(C(=O)N[C@@H](CCC(=O)O)C(=O)O)cc1 | 104 | 
35 |  |  | Cc1nc2ccc(CN(C)c3ccc(C(=O)N[C@@H](CCC(=O)O)C(=O)O)cc3)cc2c(=O)[nH]1 | 100 | 
36 |  |  | C#CCN(Cc1ccc2nc(C)[nH]c(=O)c2c1)c1ccc(C(=O)N[C@@H](CCC(=O)O)C(=O)O)cc1 | 100 | 
37 |  |  | CCN(Cc1ccc2nc(C)[nH]c(=O)c2c1)c1ccc(C(=O)N[C@@H](CCC(=O)O)C(=O)O)cc1 | 88 | 
38 | 1140 | 140 | Cc1nc2ccc(CN(C)c3ccc(C(=O)N[C@@H](CCC(=O)O)C(=O)O)cc3F)cc2c(=O)[nH]1 |  | 92
